Experiment [1] has as its system human TLR7 mutant (dIRR2). The experiment is described as follows: TLR7 mutant (deletion in second leucine-rich repeat) NFκB-luc cellular reporter assay. It is filed as cell-based. Also on record: unit not given here. To be noted: HEK293 NFκB-luc reporter, mutant TLR7, 6 hours incubation. The protocol:
(§1) The ability of compounds to activate human TLR7 and/or TLR8 was assessed in a cellular reporter assay using HEK293 cells transiently transfected with a TLR7 or TLR8 expression vector and NFκB-luc reporter construct. In one instance the TLR expression construct expresses the respective wild type sequence or a mutant sequence comprising a deletion in the second leucine-rich repeat of the TLR.
(§2) Briefly, HEK293 cells were grown in culture medium (DMEM supplemented with 10% FCS and 2 mM Glutamine). For transfection of cells in 10 cm dishes, cells were detached with Trypsin-EDTA, transfected with a mix of CMV-TLR7 or TLR8 plasmid (750 ng), NFκB-luc plasmid (375 ng) and a transfection reagent and incubated 24 hours at 37° C. in a humidified 5% CO2 atmosphere. Transfected cells were then detached with Trypsin-EDTA, washed in PBS and resuspended in medium to a density of 1.67×10^5 cells/mL. Thirty microliters of cells were then dispensed into each well in 384-well plates, where 10 μL of compound in 4% DMSO was already present. Following 6 hours incubation at 37° C., 5% CO2, the luciferase activity was determined by adding 15 μl of Steady Lite Plus substrate (Perkin Elmer) to each well and readout performed on a ViewLux ultraHTS microplate imager (Perkin Elmer). Dose response curves were generated from measurements performed in quadruplicates. Lowest effective concentrations (LEC) values, defined as the concentration that induces an effect which is at least two fold above the standard deviation of the assay, were determined for each compound.

For experiment [2], the system named is human TLR8 mutant (dIRR2). The experiment is described as follows: TLR8 mutant (deletion in second leucine-rich repeat) NFκB-luc cellular reporter assay. It is filed as cell-based. Also on record: unit not given here. To be noted: HEK293 NFκB-luc reporter, mutant TLR8, 6 hours incubation. Here is the method:
as §1, §2

Experiment [3] has as its system HCV replicon (Huh-7 luc/neo cells). In words: Suppression of HCV replicon replication by conditioned media from PBMC. It is filed as cell-based, HCV type 1b. The conditions noted are these: Hepatitis C virus, compound concentration applied to PBMCs giving 50% reduction of replicon luciferase activity, read-out: PBMC-HUH7_EC50. The protocol: Activation of human TLR7 results in robust production of interferon by plasmacytoid dendritic cells present in human blood. The potential of compounds to induce interferon was evaluated by looking at the antiviral activity in the HCV replicon system upon incubation with conditioned media from peripheral blood mononuclear cells (PBMC). The HCV replicon assay is based on a bicistronic expression construct, as described by Lohmann et al. (Science (1999) 285: 110-113; Journal of Virology (2003) 77: 3007-15 3019) with modifications described by Krieger et al. (Journal of Virology (2001) 75: 4614-4624). The assay utilized the stably transfected cell line Huh-7 luc/neo harboring an RNA encoding a bicistronic expression construct comprising the wild type NS3-NS5B regions of HCV type 1b translated from an Internal Ribosome Entry Site (IRES) from encephalomyocarditis virus (EMCV), preceded by a reporter gene (Firefly-luciferase) and a selectable marker gene (neoR, neomycine phosphotransferase). The construct is flanked by 5′ and 3′ NTRs (non-translated regions) from HCV type 1b. Continued culture of the replicon cells in the presence of G418 (neoR) is dependent on the replication of the HCV RNA. The stably transfected replicon cells that replicate HCV RNA autonomously and to high levels, encoding inter alia luciferase, were used for profiling of the conditioned cell culture media.
Briefly, PBMCs were prepared from buffy coats of at least two donors using a standard Ficoll centrifugation protocol. Isolated PBMCs were resuspended in RPMI medium supplemented with 10% human AB serum and 2×10^5 cells/well were dispensed into 384-well plates containing compounds (70 μL total volume). After overnight incubation, 10 μL of supernatant was transferred to 384-well plates containing 2.2×10^3 replicon cells/well in 30 μL (plated the day before). Following 24 hours of incubation, replication was measured by assaying luciferase activity using 40 μL/well Steady Lite Plus substrate (Perkin Elmer) and measured with ViewLux ultraHTS microplate imager (Perkin Elmer). The inhibitory activity of each compound on the Huh7-luc/neo cells were reported as EC50 values, defined as the compound concentration applied to the PBMCs resulting in a 50% reduction of luciferase activity which in turn indicates the degree of replication of the replicon RNA on transfer of a defined amount of PBMC culture medium. Recombinant interferon α-2a (Roferon-A) was used as a standard control compound.

In the case of `CCCCNc1nc(N)nc2cc(OC)c(OC)cc12` [Compound 1], in experiment [1], the TLR7-dIRR2_LEC was 0.4. This compound had a TLR8-dIRR2_LEC in experiment [2] of 0.6. The EC50 in experiment [3] turned out to be 1.9 µM.

For the compound `CCCC[C@@H](CCO)Nc1nc(N)nc2cc(OC)c(OC)cc12` [Compound 3], in experiment [1], the TLR7-dIRR2_LEC worked out at 0.9. Further, the TLR8-dIRR2_LEC in experiment [2] is given as 2.4. The EC50 in experiment [3] was found to be 0.6 µM.

The record behind these values is patent US8916575B2, “Quinazoline derivatives for the treatment of viral infections and further diseases” (Janssen R&D Ireland, priority 2011, dated 2014).
